IC50 and AC50 data for 14 compounds are collected here from US20240287097A1, “COMPOUNDS AND METHODS FOR MODULATING SPLICING” (REMIX THERAPEUTICS INC., priority 2020, published 2024).

What all share (assay type): cell-based
The test system of experiment [1] is Target C CJ mRNA transcript. Description: Gene panel canonical junction qPCR assay, Target C. The note with it: 50% response in CJ decrease, read-out: Target C IC50 (decrease in CJ mRNA levels). As to the method: (§1) Compounds described herein were used to modulate RNA transcript abundance in cells. The expression of a target mRNA was measured by detecting the formation of an exon-exon junction in the canonical transcript (CJ). A compound mediated exon-inclusion event was detected by observing an increase in formation of a new junction with an alternative exon (AJ). Real-time qPCR assays were used to detect these splicing switches and interrogate the potency of various compounds towards different target genes. A high-throughput real time quantitative PCR (RT-qPCR) assay was developed to measure these two isoforms of the mRNA (CJ and AJ) for an exemplary gene, HTT, together with a control housekeeping gene, GAPDH or GUSB or PPIA, used for normalization. Briefly, the A673 or K562 cell line was treated with various compounds described herein (e.g., compounds of Formula (I)). After treatment, the levels of the HTT mRNA targets were determined from each sample of cell lysate by cDNA synthesis followed by qPCR.
(§2) The A673 cell line was cultured in DMEM with 10% FBS. Cells were diluted with full growth media and plated in a 96-well plate (15,000 cells in 100 ul media per well). The plate was incubated at 37° C. with 5% CO2 for 24 hours to allow cells to adhere. An 11-point 3-fold serial dilution of the compounds was made in DMSO then diluted in media in an intermediate plate. Compounds were transferred from the intermediate plate to the cell plate with the top dose at a final concentration of 10 uM in the well. Final DMSO concentration was kept at or below 0.25%. The cell plate was returned to the incubator at 37° C. with 5% CO2 for an additional 24 hours.
(§3) The K562 cell line was cultured in IMDM with 10% FBS. For K562, cells were diluted with full growth media and plated in either a 96-well plate (50,000 cells in 50 uL media per well) or a 384-well plate (8,000-40,000 cells in 45 uL media per well). An 11-point 3-fold serial dilution of the compounds were made in DMSO then diluted in media in an intermediate plate. Compound was transferred from the intermediate plate to the cell plate with the top dose at a final concentration of 10 uM in the well. Final DMSO concentration was kept at or below 0.25%. Final volume was 100 uL for 96-well plate and 50 uL for 384-well plate. The cell plate was then placed in an incubator at 37° C. with 5% CO2 for 24 hours.
(§4) The data analysis was performed by first determining the ΔCt vs the housekeeper gene. This ΔCt was then normalized against the DMSO control (ΔΔCt) and converted to RQ (relative quantification) using the 2^(−ΔΔCt) equation. The RQ were then converted to a percentage response by arbitrarily setting an assay window of 3.5 ΔCt for HTT-CJ and an assay window of 9 ΔCt for HTT-AJ. […] The percentage response was then fitted to the 4 parametric logistic equation to evaluate the concentration dependence of compound treatment. The increase in AJ mRNA is reported as AC50 (compound concentration having 50% response in AJ increase) while the decrease in CJ mRNA levels is reported as IC50 (compound concentration having 50% response in CJ decrease).
(§5) Additional studies were carried out for a larger panel of genes using the protocol provided above. The junction between flanking upstream and downstream exons was used to design canonical junction qPCR assays. At least one of the forward primer, reverse primer or the CY5-labeled 5′ nuclease probe (with 3′ quencher such as ZEN/Iowa Black FQ) was designed to overlap with the exon junction to capture the CJ mRNA transcript. BLAST was used to confirm the specificity of the probeset and parameters such as melting temperature, GC content, amplicon size, and primer dimer formation are considered during their design. Data for the decrease in CJ mRNA levels for three exemplary genes (HTT, SMN2, and Target C) analyzed in this panel are reported as IC50 (compound concentration having 50% response in CJ decrease).
A general note: In qPCR the cycle at which signal appears reflects the starting amount.

The subject of a further experiment is SMN2 CJ mRNA transcript. Kind of experiment: Gene panel canonical junction qPCR assay, SMN2. The note with it: 50% response in CJ decrease, read-out: SMN2 IC50 (decrease in CJ mRNA levels). As to the method:
as §1, §2, §3, §4, §5

Another experiment concerns HTT CJ mRNA transcript. Description: Gene panel canonical junction qPCR assay, HTT. The note with it: 50% response in CJ decrease, read-out: HTT IC50 (decrease in CJ mRNA levels). As to the method:
as §1, §2, §3, §4, §5

In experiment [2] the test system is HTT mRNA, canonical junction (CJ). Description: Splicing RT-qPCR assay, HTT canonical junction (CJ) mRNA decrease. The note with it: A673 or K562 cells, 24 hours compound treatment, 50% response in CJ decrease. As to the method:
as §1
(§6) • Cells-to-CT 1-step kit: ThermoFisher A25602, Cells-to-CT lysis reagent: ThermoFisher 4391851C, TagMan™ Fast Virus 1-Step Master Mix: ThermoFisher 4444436 • GAPDH: VIC-PL, ThermoFisher 4326317E (Assay: Hs99999905 m1)—used for K562/suspension cell lines • GUSB: VIC-PL, ThermoFisher 4326320E (Assay: Hs99999908 m1)—used for K562/suspension cell lines • PPIA: VIC-PL, ThermoFisher 4326316E (Assay: Hs99999904 m1)—used for A673/adherent cell lines
as §2, §3
(§7) The cells were then gently washed with 50 uL-100 uL cold PBS before proceeding to addition of lysis buffer. 30 uL-50 uL of room temperature lysis buffer with DNAse I (and optionally RNAsin) was added to each well. Cells were shaken/mixed thoroughly at room temperature for 5-10 minutes for lysis to take place and then 3 uL-5 uL of room temperature stop solution was added and wells were shaken/mixed again. After 2-5 minutes, the cell lysate plate was transferred to ice for RT-qPCR reaction setup. The lysates could also be frozen at ˜80° C. for later use.
(§8) In some cases, a direct lysis buffer was used. An appropriate volume of 3×lysis buffer (10 mM Tris, 150 mM NaCl, 1.5%-2.5% Igepal and 0.1-1 U/uL RNAsin, pH 7.4) was directly added to either K562 or A673 cells in media and mixed by pipetting 3 times. The plates were then incubated at room temperature with shaking/rocking for 20-50 minutes to allow for lysis to take place. After this time, the cell lysate plate was transferred to ice to set up for the RT-qPCR reactions. The lysates could also be frozen at −80° C. for later use. […]

Experiment [3] relates to HTT mRNA, alternative junction (AJ). Kind of experiment: Splicing RT-qPCR assay, HTT alternative junction (AJ) mRNA increase. The note with it: A673 or K562 cells, 24 hours compound treatment, 50% response in AJ increase. As for the experimental part: as §1, §6, §2, §3, §7, §8

A word on the IC50: it is the concentration at which inhibition is half-maximal. What is called AC50 is the midpoint of the concentration-response curve, whichever way the signal moves. Read a high AC50 as activity only at high concentration. For `CN1CCC(c2nc3c(=O)n(-c4ccc5nn(C)cc5c4)cnc3s2)CC1` [Compound 176, 6-(2-methyl-2H-indazol-5-yl)-2-(1-methylpiperidin-4-yl)thiazolo[5,4-d]pyrimidin-7(6H)-one], the IC50 (in experiment [1]; in the experiment on SMN2 CJ mRNA transcript; in the experiment with HTT CJ mRNA transcript) was more than 10 µM throughout. For the same compound, the AC50 in experiment [2] and in experiment [3] was more than 10 µM in each case.
On to `Cc1cc(-c2nc3c(=O)n(C4CCN(C)CC4)cnc3s2)cc2cn(C)nc12` [Compound 179, 2-(2,7-dimethyl-2H-indazol-5-yl)-6-(1-methylpiperidin-4-yl)thiazolo[5,4-d]pyrimidin-7(6H)-one], for which the results for the IC50 with SMN2 CJ mRNA transcript and with HTT CJ mRNA transcript were 0.1 to 1 µM and more than 10 µM, respectively. The AC50 in experiment [2] and in experiment [3] was more than 10 µM throughout.
As to `CN1CCN(c2nc3c(=O)n(-c4ccc5nn(C)cc5c4)cnc3s2)CC1` [Compound 181, 6-(2-methyl-2H-indazol-5-yl)-2-(4-methylpiperazin-1-yl)thiazolo[5,4-d]pyrimidin-7(6H)-one], the IC50 with SMN2 CJ mRNA transcript and in the experiment with HTT CJ mRNA transcript was more than 10 µM throughout. Further, the AC50 in experiment [2] and in experiment [3] was more than 10 µM throughout.
As to `Cn1cc2cc(-n3cnc4sc(N5CCN(Cc6ccc(F)cc6)CC5)nc4c3=O)ccc2n1` [Compound 185, 2-(4-(4-fluorobenzyl)piperazin-1-yl)-6-(2-methyl-2H-indazol-5-yl)thiazolo[5,4-d]pyrimidin-7(6H)-one], the IC50 in the experiment with SMN2 CJ mRNA transcript and in the experiment on HTT CJ mRNA transcript was more than 10 µM throughout. The AC50 in experiment [2] and in experiment [3] was more than 10 µM each time.
As to `Cc1cn2cc(-c3nc4c(=O)n(C5CCN(C)CC5)cnc4s3)cc(F)c2n1` [Compound 186, 2-(8-fluoro-2-methylimidazo[1,2-a]pyridin-6-yl)-6-(1-methylpiperidin-4-yl)thiazolo[5,4-d]pyrimidin-7(6H)-one], the IC50 with SMN2 CJ mRNA transcript and in the experiment on HTT CJ mRNA transcript was 1 to 10 µM each time. Besides, the AC50 in experiment [2] and in experiment [3] was 1 to 10 µM in each case.
In the case of `Cc1cc(-c2nc3c(=O)n(C4CC(C)(C)N(C=O)C(C)(C)C4)cnc3s2)cc2cn(C)nc12` [Compound 187, 4-(2-(2,7-dimethyl-2H-indazol-5-yl)-7-oxothiazolo[5,4-d]pyrimidin-6(7H)-yl)-2,2,6,6-tetramethylpiperidine-1-carbaldehyde], the IC50 in the experiment with SMN2 CJ mRNA transcript is more than 10 µM; in the experiment with HTT CJ mRNA transcript it was 1 to 10 µM. Also, the results for the AC50 in experiment [2] and in experiment [3] were 1 to 10 µM and more than 10 µM, respectively.
As for `CN1CC=C(c2nc3c(=O)n(-c4ccc5nn(C)cc5c4)cnc3s2)CC1` [Compound 188, 2-(1-methyl-1,2,3,6-tetrahydropyridin-4-yl)-6-(2-methyl-2H-indazol-5-yl)thiazolo[5,4-d]pyrimidin-7(6H)-one], the IC50 in experiment [1] was 1 to 10 µM; in the experiment with SMN2 CJ mRNA transcript, more than 10 µM; in the experiment with HTT CJ mRNA transcript, more than 10 µM. The AC50 in experiment [2] and in experiment [3] was more than 10 µM throughout.
For the compound `CN1CCC(Nc2nc3c(=O)n(-c4ccc5nn(C)cc5c4)cnc3s2)CC1` [Compound 189, 6-(2-methyl-2H-indazol-5-yl)-2-((1-methylpiperidin-4-yl)amino)thiazolo[5,4-d]pyrimidin-7(6H)-one], the IC50 (in experiment [1]; in the experiment on SMN2 CJ mRNA transcript; with HTT CJ mRNA transcript) was more than 10 µM throughout. Further, the AC50 in experiment [2] and in experiment [3] was more than 10 µM throughout.
For `CN1CCC(N(C)c2nc3c(=O)n(-c4ccc5nn(C)cc5c4)cnc3s2)CC1` [Compound 190, 2-(methyl(1-methylpiperidin-4-yl)amino)-6-(2-methyl-2H-indazol-5-yl)thiazolo[5,4-d]pyrimidin-7(6H)-one], the IC50 (in experiment [1]; in the experiment with SMN2 CJ mRNA transcript; with HTT CJ mRNA transcript) was more than 10 µM throughout. Further, the AC50 in experiment [2] and in experiment [3] was more than 10 µM throughout.
Take `Cn1cc2cc(-n3cnc4sc(N5CCNCC5)nc4c3=O)ccc2n1` [Compound 219, 6-(2-methyl-2H-indazol-5-yl)-2-(piperazin-1-yl)thiazolo[5,4-d]pyrimidin-7(6H)-one]: the IC50 (in experiment [1]; in the experiment with SMN2 CJ mRNA transcript; in the experiment with HTT CJ mRNA transcript) was more than 10 µM in each case. The AC50 in experiment [2] and in experiment [3] was more than 10 µM each time.
On to `Cc1cn2cc(-n3cnc4sc(N5CCNCC5)nc4c3=O)cc(F)c2n1` [Compound 220, 6-(8-fluoro-2-methylimidazo[1,2-a]pyridin-6-yl)-2-(piperazin-1-yl)thiazolo[5,4-d]pyrimidin-7(6H)-one], for which the values for the IC50 (in experiment [1]; with SMN2 CJ mRNA transcript; in the experiment with HTT CJ mRNA transcript) were 1 to 10 µM, more than 10 µM and more than 10 µM, respectively. The AC50 in experiment [2] and in experiment [3] was more than 10 µM throughout.
For `Cc1cn2cc(-n3cnc4sc(N5CCN(C)CC5)nc4c3=O)cc(F)c2n1` [Compound 221, 6-(8-fluoro-2-methylimidazo[1,2-a]pyridin-6-yl)-2-(4-methylpiperazin-1-yl)thiazolo[5,4-d]pyrimidin-7(6H)-one], the IC50 (in experiment [1]; with SMN2 CJ mRNA transcript; in the experiment with HTT CJ mRNA transcript) was more than 10 µM throughout. For the same compound, the AC50 in experiment [2] and in experiment [3] was more than 10 µM in each case.
Consider `Cc1cn2cc(-n3cnc4sc(N5CCNCC5)nc4c3=O)cc(C(F)(F)F)c2n1` [Compound 223, 6-(2-methyl-8-(trifluoromethyl)imidazo[1,2-a]pyridin-6-yl)-2-(piperazin-1-yl)thiazolo[5,4-d]pyrimidin-7(6H)-one], for which the IC50 (in experiment [1]; in the experiment with SMN2 CJ mRNA transcript; with HTT CJ mRNA transcript) was more than 10 µM in each case. For the same compound, the AC50 in experiment [2] and in experiment [3] was more than 10 µM in each case.
On to `Cc1cn2cc(-n3cnc4sc(N5CCN(C)CC5)nc4c3=O)cc(C(F)(F)F)c2n1` [Compound 224, 6-(2-methyl-8-(trifluoromethyl)imidazo[1,2-a]pyridin-6-yl)-2-(4-methylpiperazin-1-yl)thiazolo[5,4-d]pyrimidin-7(6H)-one], for which the AC50 in experiment [2] and in experiment [3] was more than 10 µM throughout.
